Results from patent EP1145714A1, “DRUGS” (Takeda Chemical Industries, Ltd., priority 1998, dated 2000).

How the values were obtained:
[1] = system: vomiting induced by morphine in ferrets; experiment: Vomiting induced by morphine in ferrets, oral dosing; assay type: in vivo; settings: morphine 0.3 mg/kg subcutaneous; for A: Number of ferrets with retching/number of tested ferrets / B: Frequency of retching (mean ± SD) / C: Time period until first retching (minute; mean ± SD) / D: Duration of retching (minute; mean ± SD) / E: Number of ferrets with vomiting/number of tested ferrets / F: Frequency of vomiting (mean ± SD) / G: Time period until first vomiting (minute; mean ± SD) / H: Duration of vomiting (minute; mean ± SD): 30 minutes
Protocol: Male 6 or 7 ferrets (1.6 to 2.0 kg) per one group were used. Morphine was subcutaneously administered at0.3 mg/0.3 ml/kg. 2.5 hours before morphine dosing, a small amount of a feed was given to the animals. 30 minutes thereafter, predetermined doses of the compound No. 3 were orally given. To a control animal group under no fasting was orally given a predetermined volume of 0.5 % methyl cellulose solution. A predetermined volume of ondansetron was orally given to the animals under fasting. To a control animal group of ondansetron under fasting was orally given a predetermined volume of physiological saline. The frequency of vomiting was counted up to 30 minutes after morphine dosing. The compound No. 3 was suspended in 0.5 % methyl cellulose solution and was then orally dosed at a ratio of 1 ml per 1 kg body weight. An injection of ondansetron at a concentration of 0.2 w/v % was orally dosed. Additionally, 0.5 % methyl cellulose solution was orally given at a ratio of 1 ml per 1 kg body weight, while physiological saline was orally given at a ratio of 1 ml per 1 kg body weight. The data relating to the frequency of vomiting, the latency and the time period from the occurrence of vomiting to the termination thereof were statistically analyzed by the Dunnett test or t test, with reference to the difference from the control group.
The retching suppression ratio and vomiting suppression ratio were calculated by the following formula. [Frequency of retching or vomiting in control] - [Frequency of retching or vomiting in animals dosed with compound No. 3] / [Frequency of retching or vomiting in control] x 100 (%) [formula]

[2] = system: methotrexate-induced delayed vomiting in dogs; experiment: Methotrexate-induced delayed vomiting in dogs, oral dosing; assay type: in vivo, beagle dogs; settings: methotrexate 2.5 mg/kg i.v.; for Frequency of vomiting (mean ± SD), Total frequency / Number of dogs with vomiting/number of tested dogs: 72 hours
Protocol: 3 or 4 beagle dogs (8.3 to 12.6 kg), male or female per one group were used. Methotrexate was intravenously administered at 2.5 mg/ml/kg. 8, 24 and 48 hours after methotrexate dosing, predetermined doses of the compound No. 3, ondansetron and 0.5% methyl cellulose solution were orally given. The compound No. 3 and 0.5 % methyl cellulose solution were dosed 30 minutes after a small amount of a feed was given to the animals, while ondansetron was dosed to the animals under fasting. The frequency of vomiting was counted in number, up to 72 hours after methotrexate dosing. The compound No. 3 was suspended in 0.5 % methyl cellulose solution and was then orally dosed at a ratio of 0.25 to 1 ml per 1 kg body weight. A predetermined volume of an ondansetron injection at a concentration of 0.2 w/v % was orally dosed. Additionally, 0.5 % methyl cellulose solution was orally given at a ratio of 1 ml per 1 kg body weight. The data relating to the frequency of vomiting, the latency and the time period from the occurrence of vomiting to the termination thereof were statistically analyzed by the Dunnett test, with reference to the difference from the control group.
The delayed vomiting suppression ratio and the suppression ratio of the total frequency of vomiting were calculated by the following formula.

[3] = system: vomiting induced by a central emetic agent apomorphine in dogs; experiment: Vomiting induced by apomorphine in dogs; assay type: in vivo, beagle dogs; settings: apomorphine 0.1 mg/kg subcutaneous; for B: Frequency of vomiting (mean ± SD) / C: Time period until first vomiting (minute; mean ± SD) / D: Duration of vomiting (minute; mean ± SD) / Number of dogs with vomiting/number of tested dogs: one hour
Protocol: 3 male or female beagle dogs (7.8 to 15.9 kg) per one group were used. Apomorphine was subcutaneously given at 0.1 mg/ml/kg. 2.5 hours prior to apomorphine administration, a small amount of a feed was given to the animals. 30 minutes thereafter, predetermined doses of the compound No. 3 were orally given. Similarly, 0.5 % methyl cellulose solution was orally given to a control animal group under no fasting. A predetermined dose of ondansetron was given orally to the animals under fasting. The frequency of vomiting was counted in number, up to one hour after apomorphine administration. The compound No. 3 was dissolved in 0.5 % methyl cellulose solution, for oral dosing at a ratio of 1 ml per 1 kg • body weight. An injection of ondansetron at a concentration of 0.2% w/v was orally given. Additionally, 0.5 % methyl cellulose solution was orally given at a ratio of 1 ml per 1 kg • body weight. The data relating to the frequency of vomiting, the latency and the time period from the occurrence of vomiting to the termination thereof were statistically analyzed by the Dunnett test, with reference to the difference from the control group.
The vomiting suppression ratio was calculated by the following formula.

With `Cc1ccc(-c2c3n(c(=O)c4ncccc24)CC[C@@H](C)CN(Cc2cc(C(F)(F)F)cc(C(F)(F)F)c2)C3=O)cc1` [Cpd. No.3, (9R)-7-[3,5-bis(trifluoromethyl)benzyl]-6,7,8,9,10,11-hexahydro-9-methyl-5-(4-methylphenyl)-6,13-dioxo-13H-[1,4]diazocino[2,1-g][1,7]naphthylidine] the “Acute vomiting suppression ratio” value ([1]; 1 mg/kg p.o.) was 31 % NS, the “Effect on retching and vomiting (in words)” value ([1]; 1 mg/kg p.o.) was “likely to be suppressed” and the Pseudo-vomiting suppression ratio ([1]; 1 mg/kg p.o.) was 43 % NS. The “A: Number of ferrets with retching/number of tested ferrets” value ([1]; 1 mg/kg p.o.) was 4/6, the “B: Frequency of retching (mean ± SD)” value ([1]; 1 mg/kg p.o.) was 18.3 ± 7.0 and the “C: Time period until first retching (minute; mean ± SD)” value ([1]; 1 mg/kg p.o.) was 12.3 ± 5.6 min. The “D: Duration of retching (minute; mean ± SD)” value ([1]; 1 mg/kg p.o.) was 5.5 ± 1.9 min, the “E: Number of ferrets with vomiting/number of tested ferrets” value ([1]; 1 mg/kg p.o.) was 4/6 and the “F: Frequency of vomiting (mean ± SD)” value ([1]; 1 mg/kg p.o.) was 2.5 ± 1.0. For the same compound, the “G: Time period until first vomiting (minute; mean ± SD)” value ([1]; 1 mg/kg p.o.) was 13.3 ± 5.4 min, the “H: Duration of vomiting (minute; mean ± SD)” value ([1]; 1 mg/kg p.o.) was 3.8 ± 1.9 min and the “Acute vomiting suppression ratio” value ([1]; 3 mg/kg p.o.) was 86 % a. For the same compound, the “Effect on retching and vomiting (in words)” value ([1]; 3 mg/kg p.o.) was “significantly suppressed”, the Pseudo-vomiting suppression ratio ([1]; 3 mg/kg p.o.) was 79 % b and the “A: Number of ferrets with retching/number of tested ferrets” value ([1]; 3 mg/kg p.o.) was 5/6. The “B: Frequency of retching (mean ± SD)” value ([1]; 3 mg/kg p.o.) was 6.8 ± 2.6 b, the “C: Time period until first retching (minute; mean ± SD)” value ([1]; 3 mg/kg p.o.) was 10.5 ± 3.9 min and the “D: Duration of retching (minute; mean ± SD)” value ([1]; 3 mg/kg p.o.) was 2.7 ± 1.7 min. The “E: Number of ferrets with vomiting/number of tested ferrets” value ([1]; 3 mg/kg p.o.) was 1/6, the “F: Frequency of vomiting (mean ± SD)” value ([1]; 3 mg/kg p.o.) was 0.5 ± 0.5 a and the “G: Time period until first vomiting (minute; mean ± SD)” value ([1]; 3 mg/kg p.o.) was 25.8 ± 4.2 b minute. For the same compound, the “H: Duration of vomiting (minute; mean ± SD)” value ([1]; 3 mg/kg p.o.) was 1.5 ± 1.5 min, the “Effect on methotrexate-induced vomiting (in words)” value ([2]; 0.01 mg/kg or higher p.o.) was “significantly suppressed” and the “Effect on the time period from the occurrence of vomiting to the termination thereof (in words)” value ([2]; 0.01 mg/kg or higher p.o.) was “significantly shortened”. The “Delayed vomiting suppression ratio (24 to 72 hours after MIX dosing)” value (shortened to “Delayed vomiting suppression ratio”) ([2]; 0.01 mg/kg p.o. once daily) was 60 % b, the “Suppression ratio of total frequency of vomiting (0 to 72 hours after MTX dosing)” value ([2]; 0.01 mg/kg p.o. once daily) was 62 % b and the “Duration (in hour; mean ± SD)” value ([2]; 0.01 mg/kg p.o.) was 21.8 ± 5.8 a hour. The “Frequency of vomiting (mean ± SD), Day 0 (0-24 hours)” value ([2]; 0.01 mg/kg p.o.) was 0 b, the “Frequency of vomiting (mean ± SD), Days 1 + 2 (24 - 72 hours)” value ([2]; 0.01 mg/kg p.o.) was 4.7 ± 0.7 b and the “Latency (in hour; mean ± SD)” value ([2]; 0.01 mg/kg p.o.) was 33.8 ± 4.8 h. The “Frequency of vomiting (mean ± SD), Total frequency” value ([2]; 0.01 mg/kg p.o.) was 4.7 ± 0.7 b, the “Number of dogs with vomiting/number of tested dogs” value ([2]; 0.01 mg/kg p.o.) was 3/3 and the “Delayed vomiting suppression ratio” value ([2]; 0.1 mg/kg p.o. once daily) was 74 % b. The “Suppression ratio of total frequency of vomiting (0 to 72 hours after MTX dosing)” value ([2]; 0.1 mg/kg p.o. once daily) was 76 % b, the “Duration (in hour; mean ± SD)” value ([2]; 0.1 mg/kg p.o.) was 15.0 ± 8.0 b hour and the “Frequency of vomiting (mean ± SD), Day 0 (0-24 hours)” value ([2]; 0.1 mg/kg p.o.) was 0 b. The “Frequency of vomiting (mean ± SD), Days 1 + 2 (24 - 72 hours)” value ([2]; 0.1 mg/kg p.o.) was 3.0 ± 1.0 b, the “Latency (in hour; mean ± SD)” value ([2]; 0.1 mg/kg p.o.) was 35.7 ± 7.1 h and the “Frequency of vomiting (mean ± SD), Total frequency” value ([2]; 0.1 mg/kg p.o.) was 3.0 ± 1.0 b. The “Number of dogs with vomiting/number of tested dogs” value ([2]; 0.1 mg/kg p.o.) was 3/3, the “Delayed vomiting suppression ratio” value ([2]; 1 mg/kg p.o. once daily) was 68 % b and the “Suppression ratio of total frequency of vomiting (0 to 72 hours after MTX dosing)” value ([2]; 1 mg/kg p.o. once daily) was 70 % b. The “Duration (in hour; mean ± SD)” value ([2]; 1 mg/kg p.o.) was 14.4 ± 6.1 b hour, the “Frequency of vomiting (mean ± SD), Day 0 (0-24 hours)” value ([2]; 1 mg/kg p.o.) was 0 b and the “Frequency of vomiting (mean ± SD), Days 1 + 2 (24 - 72 hours)” value ([2]; 1 mg/kg p.o.) was 3.7 ± 0.7 b. For the same compound, the “Latency (in hour; mean ± SD)” value ([2]; 1 mg/kg p.o.) was 46.7 ± 8.7 h, the “Frequency of vomiting (mean ± SD), Total frequency” value ([2]; 1 mg/kg p.o.) was 3.7 ± 0.7 b and the “Number of dogs with vomiting/number of tested dogs” value ([2]; 1 mg/kg p.o.) was 3/3. For the same compound, the “Delayed vomiting suppression ratio” value ([2]; 3 mg/kg p.o. once daily) was 85 % b, the “Suppression ratio of total frequency of vomiting (0 to 72 hours after MTX dosing)” value ([2]; 3 mg/kg p.o. once daily) was 86 % b and the “Duration (in hour; mean ± SD)” value ([2]; 3 mg/kg p.o.) was 6.4 ± 5.9 b hour. For the same compound, the “Frequency of vomiting (mean ± SD), Day 0 (0-24 hours)” value ([2]; 3 mg/kg p.o.) was 0 b, the “Frequency of vomiting (mean ± SD), Days 1 + 2 (24 - 72 hours)” value ([2]; 3 mg/kg p.o.) was 1.7 ± 0.3 b and the “Latency (in hour; mean ± SD)” value ([2]; 3 mg/kg p.o.) was 45.5 ± 3.3 h. For the same compound, the “Frequency of vomiting (mean ± SD), Total frequency” value ([2]; 3 mg/kg p.o.) was 1.7 ± 0.3 b, the “Number of dogs with vomiting/number of tested dogs” value ([2]; 3 mg/kg p.o.) was 3/3 and the “Delayed vomiting suppression ratio” value ([2]; 10 mg/kg p.o. once daily) was 97 % b. For the same compound, the “Suppression ratio of total frequency of vomiting (0 to 72 hours after MTX dosing)” value ([2]; 10 mg/kg p.o. once daily) was 98 % b, the “Duration (in hour; mean ± SD)” value ([2]; 10 mg/kg p.o.) was 0 b hour and the “Effect on methotrexate-induced vomiting (in words)” value ([2]; 10 mg/kg p.o.) was “almost completely suppressed”. The “Frequency of vomiting (mean ± SD), Day 0 (0-24 hours)” value ([2]; 10 mg/kg p.o.) was 0 b, the “Frequency of vomiting (mean ± SD), Days 1 + 2 (24 - 72 hours)” value ([2]; 10 mg/kg p.o.) was 0.3 ± 0.3 b and the “Latency (in hour; mean ± SD)” value ([2]; 10 mg/kg p.o.) was 66.2 ± 5.8 b hour. For the same compound, the “Frequency of vomiting (mean ± SD), Total frequency” value ([2]; 10 mg/kg p.o.) was 0.3 ± 0.3 b, the “Number of dogs with vomiting/number of tested dogs” value ([2]; 10 mg/kg p.o.) was 1/4 and the “Effect on vomiting (in words)” value ([3]; 3 mg/kg p.o.) was “likely to be suppressed”. For the same compound, the Vomiting suppression ratio ([3]; 3 mg/kg p.o.) was 48 % NS, the “B: Frequency of vomiting (mean ± SD)” value ([3]; 3 mg/kg p.o.) was 6.3 ± 1.3 and the “C: Time period until first vomiting (minute; mean ± SD)” value ([3]; 3 mg/kg p.o.) was 7.2 ± 0.6 min. For the same compound, the “D: Duration of vomiting (minute; mean ± SD)” value ([3]; 3 mg/kg p.o.) was 12.0 ± 3.0 min, the “Number of dogs with vomiting/number of tested dogs” value ([3]; 3 mg/kg p.o.) was 3/3 and the “Effect on the duration of vomiting from the start to the termination (in words)” value ([3]; 10 mg/kg p.o.) was “greatly shortened”. For the same compound, the “Effect on vomiting (in words)” value ([3]; 10 mg/kg p.o.) was “prominently suppressed”, the Vomiting suppression ratio ([3]; 10 mg/kg p.o.) was 89 % a and the “B: Frequency of vomiting (mean ± SD)” value ([3]; 10 mg/kg p.o.) was 1.3± 0.9b. For the same compound, the “C: Time period until first vomiting (minute; mean ± SD)” value ([3]; 10 mg/kg p.o.) was 27.6 ± 13.8 min, the “D: Duration of vomiting (minute; mean ± SD)” value ([3]; 10 mg/kg p.o.) was 1.2 ± 1.2 a minute and the “Number of dogs with vomiting/number of tested dogs” value ([3]; 10 mg/kg p.o.) was 2/3.
